Data as given in PMC2063630 (The Journal of Cell Biology, 2007).
Read-outs that look alike come from different tables or passages of the source. Each block holds one molecule with its values, some of them ahead of it. Square brackets hold non-standard residues; d marks the D form. Ends that are not written are not given here. * marks the point of attachment. Biotin = O=C1N[C@H]2[C@H](CS[C@H]2CCCCC(=O)*)N1; pS = N[C@@H](COP(=O)(O)O)C(=O)O

Tests used:
p38 and JNK isoforms = settings: high concentrations; ref Kuma et al., 2005; cited from earlier work
[1] = tested on: endogenous WNK1 in 293 cells; type: cell-based; settings: for activation of WNK1 by other stimuli, in words: serum-deprived 16 h, stimulus 30 min
[2] = tested on: WNK1 localization in 293 cells; assay: WNK1 localization in 293 cells by confocal and live-cell imaging, FRAP; type: cell-based; settings: for time to redistribution of GFP-WNK1 to intracellular vesicles / time to reversal after removal (WNK1 diffuse in cytosol): live 293 cells; for time to redistribution of GFP-WNK1 to intracellular vesicles: 0.2 M sorbitol or 0.2 M NaCl; for time to reversal after removal (WNK1 diffuse in cytosol): removal of sorbitol or NaCl; for FRAP: time to redistribution to photobleached area: sorbitol- or NaCl-treated 293 cells
ERK1/2 = assay: ERK activation in 293 cells; type: cell-based
p38 and JNK = assay: p38 / JNK activation in 293 cells; type: cell-based; settings: 30 min
[3] = tested on: endogenous WNK1 in 293 cells; type: cell-based, human; settings: 0.5 M sorbitol
[4] = tested on: endogenous SPAK and OSR1 in HeLa cells; assay: SPAK/OSR1 activity in HeLa cells; type: cell-based; settings: 0.5 M sorbitol, 30 min, CATCHtide
[5] = tested on: endogenous SPAK and OSR1 in 293 cells; assay: SPAK/OSR1 activity in 293 cells; type: cell-based; settings: sorbitol, CATCHtide (Fig. S1)
[6] = tested on: SPAK and OSR1 T-loop and S-motif; assay: SPAK/OSR1 T-loop and S-motif phosphorylation; type: cell-based; settings: sorbitol, HeLa and 293 cells
[7] = molecular target: OSR1 CCT domain (residues 429–527) (Homo sapiens, UniProt O95747); assay: Surface plasmon resonance; type: binding; settings: BiaCore, OSR1 CCT domain 6.8–340 nM; vs nonphosphorylated peptide
WNK1 Ser382 [8] = assay: WNK1 Ser382 phosphorylation, forms expressed in E. coli; type: biochemical
[9] = tested on: OSR1[D164A] phosphorylation by WNK1[1–661]; assay: Activity of WNK1[1–661] forms expressed in E. coli; type: biochemical; settings: mean of duplicate samples
WNK1 Ser382 [10] = assay: WNK1 Ser382 phosphorylation, forms expressed in 293 cells; type: cell-based; settings: 0.5 M sorbitol, 30 min, phospho-Ser382 antibody
[11] = tested on: OSR1[D164A] phosphorylation by WNK1[1–667]; assay: Activity of GST-WNK1[1–667] forms expressed in 293 cells; type: cell-based
[12] = molecular target: OSR1 CCT domain (residues 429-527) (human, UniProt O95747 429-527); assay: SPR
[13] = PD184352 2 μM 30 min preincubation, 0.5 M sorbitol 30 min
[14] = U0126, 0.5 M sorbitol, not depicted

Chain of OSR1 CCT domain (residues 429–527) (O95747 429-527): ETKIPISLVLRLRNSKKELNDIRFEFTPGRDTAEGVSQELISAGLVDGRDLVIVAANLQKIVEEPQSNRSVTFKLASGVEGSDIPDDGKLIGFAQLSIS
Chain of OSR1 CCT domain (residues 429-527) (O95747 429-527): as above

Molecule: Cc1ccc(-n2nc(C(C)(C)C)cc2NC(=O)Nc2ccc(OCCN3CCOCC3)c3ccccc23)cc1 [BIRB0796]
inhibition of p38 and JNK isoforms, in words (p38 and JNK isoforms): inhibit all p38 and JNK isoforms

Molecule: OO [H2O2]
activation of WNK1 by other stimuli, in words [1]: failed to induce activation of WNK1

Molecule: [Cl-].[K+] [KCl]
fold increase of WNK1 activity ([1]; 0.5 M KCl, 30 min): threefold

Molecule: [Cl-].[Na+] [NaCl]
concentration at which WNK1 activation was detectable ([1]; NaCl, 30 min): 50 mM | concentration for maximal WNK1 activation ([1]; NaCl, 30 min): 0.15 M | time to redistribution of GFP-WNK1 to intracellular vesicles [2]: ≤ 0.5 min | time to reversal after removal (WNK1 diffuse in cytosol) [2]: ≤ 2 min | FRAP: time to redistribution to photobleached area [2]: ≤ 2 min

Molecule: O=C(NOCC1CC1)c1ccc(F)c(F)c1Nc1ccc(I)cc1Cl [PD184352]
effect on WNK1 activation by sorbitol [1, 13]: without affecting WNK1 activation | effect on ERK activation by sorbitol (ERK1/2; [13]): abolished ERK activation by sorbitol

Molecule: C[S+]([O-])c1ccc(-c2nc(-c3ccncc3)c(-c3ccc(F)cc3)[nH]2)cc1 (centres unmarked) [SB203580]
effect on WNK1 activation by sorbitol [1]: failed to prevent activation of WNK1 by sorbitol

Molecule: CCCCCCCCCCCCCC(=O)O[C@@H]1[C@@H](C)[C@@]2(O)[C@@H](C=C(CO)C[C@]3(O)C(=O)C(C)=C[C@@H]23)[C@@H]2C(C)(C)[C@]12OC(C)=O [TPA]
activation of WNK1 by other stimuli, in words [1]: failed to induce activation of WNK1

Molecule: N#CC(=C(/N)Sc1ccccc1N)/C(C#N)=C(/N)Sc1ccccc1N [U0126]
effect on WNK1 activation by sorbitol [1, 14]: without affecting WNK1 activation | effect on ERK activation by sorbitol (ERK1/2; [14]): abolished ERK activation by sorbitol

Molecule: COc1ccc(C[C@H]2NC[C@H](O)[C@H]2OC(C)=O)cc1 [anisomycin]
p38 and JNK stimulation, in words (p38 and JNK; anisomycin 10 μg/ml): potently stimulates p38 and JNK | activation of WNK1 by anisomycin, in words ([1]; anisomycin 10 μg/ml, 30 min): failed to activate WNK1

Molecule: CCCCNc1cc(C(=O)O)cc(S(N)(=O)=O)c1Oc1ccccc1 [bumetanide]
activation of WNK1 by other stimuli, in words [1]: failed to induce activation of WNK1

Molecule: COC[C@@H]([C@H](O)[C@H](O)C(=O)NCC[C@H](C)c1nc(/C=C/C[C@@H]2O[C@]3(C[C@@H](O)[C@@H]2C)O[C@H]([C@H](C[C@H](O)[C@H](C)[C@H](O)[C@H](C)/C=C(C)/C(C)=C/C=C/C(C)=C\C#N)OC)[C@H](OP(=O)(O)O)C3(C)C)co1)N(C)C [calyculin A]
activation of WNK1 by other stimuli, in words [1]: failed to induce activation of WNK1

Molecule: OC[C@@H](O)[C@@H](O)[C@H](O)[C@@H](O)CO [sorbitol]
WNK1 phosphorylation sites stimulated, in words ([3]; 32P-labelled 293 cells, 20 min): Phosphorylation of two sites, Ser1261 and Ser 2372, was stimulated | WNK1 phosphorylation sites enhanced, in words ([3]; unlabeled 293 cells, LC-MS, 30 min): five residues (Ser15, Ser167, Ser382, Ser1261, and Thr1848) whose phosphorylation was markedly enhanced | p38 and JNK stimulation, in words (p38 and JNK; 0.5 M sorbitol): stimulated the extracellular signal–regulated kinase (ERK) 1/2, p38, and JNK protein kinases | fold increase of WNK1 activity ([1]; 0.1–1.0 M sorbitol, 30 min, dose-dependent): fivefold | duration of sustained WNK1 activation ([1]; 0.5 M sorbitol): 80 min | time at which WNK1 activation was detected ([1]; 0.5 M sorbitol): ≤ 0.5 min | time to maximal WNK1 activation ([1]; 0.5 M sorbitol): 1 to 2 min | fold increase of WNK1 activity (OSR1 phosphorylation rate) ([1]; 0.5 M sorbitol, 30 min, vs nontreated cells, duplicate samples): approximately threefold | WNK1 localization, in words ([2]; 0.2 M sorbitol, 1 min): WNK1 was strikingly observed on discrete intracellular structures | time to redistribution of GFP-WNK1 to intracellular vesicles [2]: ≤ 0.5 min | time to reversal after removal (WNK1 diffuse in cytosol) [2]: ≤ 2 min | FRAP: time to redistribution to photobleached area [2]: ≤ 2 min | fold increase of SPAK/OSR1 activity [4]: approximately fivefold | ERK1/2 stimulation, in words (ERK1/2; 0.5 M sorbitol, 30 min): stimulated the extracellular signal–regulated kinase (ERK) 1/2 | fold increase of SPAK/OSR1 activity [5]: approximately fourfold | SPAK/OSR1 T-loop and S-motif phosphorylation, in words [6]: markedly stimulated the phosphorylation of endogenously expressed SPAK and OSR1 at both the T-loop and S-motif

Molecule: AGRRFIVpSPVPESRL (AGRRFIV[pS]PVPESRL; also: biotin label, attachment end not given here) [phosphorylated Ser1261 peptide]
binding to OSR1 CCT domain, in words [7]: bound to OSR1 with a markedly lower affinity

Molecule: IGF-1: IGF-1
activation of WNK1 by other stimuli, in words [1]: failed to induce activation of WNK1

Molecule: TNFα
activation of WNK1 by other stimuli, in words [1]: failed to induce activation of WNK1

Molecule: WNK1[1–661]: wild-type WNK1 fragment expressed in E. coli
Ser382 phosphorylation after MgATP, in words (WNK1 Ser382 [8]; 0.1 mM ATP, 10 mM Mg, 1 h): did not further increase phosphorylation of Ser382 | Ser382 phosphorylation, in words (WNK1 Ser382 [8]; expressed in E. coli): heavily phosphorylated at Ser382 | specific activity [9]: 5.2 U/mg

Molecule: WNK1[1–667]: N-terminal fragment of WNK1, GST fusion, expressed in 293 cells
Ser382 phosphorylation induced by sorbitol, in words (WNK1 Ser382 [10]): Sorbitol markedly increased recognition of WNK1[1–667] by a phospho-Ser382 antibody | specific activity ([11]; isolated from sorbitol-stimulated 293 cells): ~0.13 U/mg | specific activity ([11]; wild-type, isolated from untreated 293 cells): 0.13 U/mg

Molecule: WNK1[S382A, 1–661]: mutant expressed in E. coli
specific activity [9]: 0.15 U/mg

Molecule: WNK1[S382D, 1–661]: mutant expressed in E. coli
specific activity [9]: 0.26 U/mg

Molecule: WNK1[S382E, 1–661]: mutant expressed in E. coli
specific activity [9]: 0.66 U/mg

Molecule: WNK1[S382E, 1–667]: Ser382 to Glu mutant of GST-WNK1[1–667]
effect of sorbitol on activity of mutant, in words ([11]; 0.5 M sorbitol, 30 min): not enhanced by sorbitol stimulation | basal activity, fold over wild-type WNK1[1–667] from untreated cells ([11]; untreated 293 cells): over eightfold

Molecule: pervanadate
activation of WNK1 by other stimuli, in words [1]: failed to induce activation of WNK1

Kd [12]: ~40 nM
Molecule: Biotin-AGRRFIVSPVPESRL [biotinylated peptide encompassing Ser1261 of WNK1 (biotin-AGRRFIVSPVPESRL)]
